The source of these data is ChEMBL document CHEMBL1158070, “Gymnastatins F-H, cytostatic metabolites from the sponge-derived fungus Gymnascella dankaliensis” (2006).

Converted amounts (≈) assume the structure as drawn.

In this experiment the test system is P388. Nature of the experiment: Cytotoxicity against mouse P388 cells. In kind it is functional. To be noted: read-out: ED50 (the source's name).
`O=c1[nH]cc(F)c(=O)[nH]1` [FLUOROURACIL]: the EC50 came out at 0.073 µg/mL (≈ 0.561 µM). For the compound `CCCCCC[C@@H](C)/C=C(C)/C=C/C(N)=O` [GYMNAMIDE], the EC50 is above 10 µg/mL.

Regarding `CCCCCC[C@@H](C)/C=C(C)/C=C/C(=O)N[C@H]1C[C@]2(O)C=C(Cl)C(=O)[C@@](Cl)([C@H]2OC)[C@H]1O` [GYMNASTATIN F], the EC50 came to 0.13 µg/mL (≈ 0.266 µM).

In the case of `CCCCCC[C@@H](C)/C=C(C)/C=C/C(=O)N[C@H]1C[C@]2(O)[C@H]3O[C@H]3C(=O)[C@](Cl)([C@H]1O)[C@H]2OC` [GYMNASTATIN G], the EC50 turned out to be 0.03 µg/mL (≈ 0.0638 µM). For `CCCCCC[C@@H](C)/C=C(C)/C=C/C(=O)N[C@@H](Cc1ccc(O)cc1)C(=O)OC` [GYMNASTATIN H], the EC50 was above 10 µg/mL.
